Where a name gives a salt, the structure may show the parent alone.

The subject of test [1] is PC12/HttN90Q103 cells. Nature of the test: CellTiter-Blue assay, rescue of HttN90Q103-induced cell death. It is filed as cell-based, rat. An excerpt:
(§1) In this stable PC12 line (PC12/HttN90Q103), transcription of the Htt transgene is driven by an ecdysone-regulated promoter such that the expression of HttN90Q103 can be turned on or off by the addition or removal of the non-steroidal ecdysone analog tebufenozide (teb).
(§2) Using the engineered PC12/HttN90Q103 cell line together with Perkin Elmer's ATPlite™ assay kit or CellTiter-Blue™ assay, a high throughput assay to screen small molecules for their ability to prevent mutant Htt exon 1-induced cell death was developed and optimized.
(§3) The following formulas were used to calculate mutant Htt-induced cytotoxicity and test compound rescue: % killing=[(un-induced−induced-DMSO treated)/un-induced]×100 % rescue=[(drug treated−induced-DMSO treated)/(un-induced−induced-DMSO treated)]×100
For single-agent ranking, the assay was performed in 384-well plates to obtain duplicate dose response curves in 12-step dilutions with a dosing ratio f=2 over 3 orders of magnitude.
The uncertainty of each fitted parameter was estimated from the range over which the change in reduced chi-squared was less than one, or less than minimum reduced chi-squared if that minimum exceeded one, to allow for underestimated σI errors.
(§4) Day 1—Add Compounds 4 hours post-induction • 1) Remove compound plates from dessicator. • 2) Using the PlateMate, prepare dilution plate with 100 μL per well of the complete cell medium at room temperature in clear untreated 384-well plates. • 3) Using the MiniTrak, make compound dilution plates: 1 μL from each well of stock plates into 100 μL of media in the dilution plate for a 1:100 dilution (10× stock in media). • 4) Using the MiniTrak, add 4.5 μL of the diluted stock to each well of cells in assay plates. • 5) Make positive control solution: dilute 20 mM stock of BOC-D-FMK in media for a 10× stock. • 6) Manually add 4.5 μL positive control to C1-N1. • 7) Incubate plates at 37° C. for three days. • (for ranking combinations, steps 5 and 6 are omitted as there is positive control on the compound plates)
Day 4—CellTiter-Blue™ assay • 1) Make solution of 5% CellTiter-Blue™ in Q103 media. • 2) Using the Multidrop, add 40 μL of 5% CellTiter-Blue™ solution to each well of the assay plates. • 3) Incubate plates with CellTiter-Blue™ at 37° C.

Test [2] concerns PC12/HttN90Q103 cells. Nature of the test: ATPlite assay, rescue of HttN90Q103-induced cell death. The format is cell-based, rat. As to conditions: ATPlite, single agent; for EC50: sigmoidal fit of 12-step dose response, read-out: EC50.
Excerpt: as §1, §2, §3
For single-agent ranking, the assay was performed in 384-well plates to obtain duplicate dose response curves in 12-step dilutions with a dosing ratio f=2 over 3 orders of magnitude. […]
as §4
Day 4—Perform ATPlite™ Assay • 1) Take plates out of the incubator. • 2) Using the PlateMate, add 40 μL of ATPlite™ 1-step solution (Perkin Elmer) to each well of the assay plates. • 3) Wait ten minutes to allow plates to dark-adapt. • 4) Read luminescence intensity in Wallac plate reader using […]

Where [3] appears, read: Rattus norvegicus, PC-12, CellTiter-Blue, single agent, 250 nM tebufenozide induction, read-out: Max Effect (% rescue).
The mark [4] stands for this setting: Rattus norvegicus, PC-12, CellTiter-Blue, single agent, sigmoidal fit of 12-step dose response, read-out: EC50.
The mark [5] stands for this setting: CellTiter-Blue, single agent, 250 nM tebufenozide induction.
Setting [6] is: CellTiter-Blue, single agent, sigmoidal fit of 12-step dose response, read-out: EC50.

As for `Cc1c(C)c2c(c(C)c1O)CCC(C)(COc1ccc(CC3SC(=O)NC3=O)cc1)O2` (stereo not drawn) [Troglitazone], the Emax with PC12/HttN90Q103 cells [1] (setting [3]) was 49%. Moreover, in the test with PC12/HttN90Q103 cells [1] (setting [4]), the EC50 worked out at 17.8 µM.
Take `COc1ccc(CNC(=O)Nc2ncc([N+](=O)[O-])s2)cc1` [GSK-3β inhibitor VIII (AR-A014418), N-(4-Methoxybenzyl)-N′-(5-nitro-1,3-thiazol-2-yl)urea]: the Emax in the test on PC12/HttN90Q103 cells [1] (setting [3]) is 43%. In addition, in the test with PC12/HttN90Q103 cells [1] (setting [4]), the EC50 was 3.6 µM.
Regarding `C[N+](C)(C)CCOC(N)=O` [Carbachol], the Emax in the test with PC12/HttN90Q103 cells [1] (setting [3]) came out at 15%. The EC50 in the test on PC12/HttN90Q103 cells [1] (setting [4]) came out at 6.8 µM.
In the case of `C=C[C@@]1(C)CC(=O)[C@]2(O)[C@@]3(C)[C@@H](O)CCC(C)(C)[C@@H]3[C@H](OC(=O)CCN(C)C)[C@H](OC(C)=O)[C@@]2(C)O1` [NKH-477, 6-(3-dimethylaminopropionyl)forskolin], the “Max Effect (% rescue)” value in the test on PC12/HttN90Q103 cells [1] (setting [5]) was 69%. The half-maximal effective concentration (EC50) in the test with PC12/HttN90Q103 cells [1] (setting [6]) was 7.2 µM.
Consider `C[C@]12C=CC(=O)C=C1CC[C@@H]1[C@@H]2CC[C@]2(C)OC(=O)CC[C@@H]12` [Testolactone], for which, in the test on PC12/HttN90Q103 cells [1] (setting [3]), the Emax is 52%. Further, the EC50 in the test with PC12/HttN90Q103 cells [1] (setting [4]) amounted to 7.6 µM.
Turning to `CN1c2c(nc(N)[nH]c2=O)NCC1CNc1ccc(C(=O)N[C@@H](CCC(=O)O)C(=O)O)cc1` (stereo partly drawn) [5-methyl-5-6-7-8-tetrahydropteroylglutamic-acid], in the test with PC12/HttN90Q103 cells [1] (setting [5]), the “Max Effect (% rescue)” value is listed as 34%. In the test on PC12/HttN90Q103 cells [1] (setting [6]), the EC50 was determined as 9.3 µM.
With `CO[C@@H]1[C@@H](OC(N)=O)[C@@H](O)[C@H](Oc2ccc3c(O)c(NC(=O)c4ccc(O)c(CC=C(C)C)c4)c(=O)oc3c2C)OC1(C)C` [Novobiocin], the Emax in the test on PC12/HttN90Q103 cells [1] (setting [3]) amounted to 27%. Also, in the test with PC12/HttN90Q103 cells [1] (setting [4]), the EC50 was 3 µM.
On to `Cc1ccc(C(=O)Cn2c3c(sc2=N)CCCC3)cc1` [Pifithrin α, 2-(2-imino-4,5,6,7-tetrahydrobenzothiazol-3-yl)-1-p-tolylethanone hydrobromide], for which, in the test on PC12/HttN90Q103 cells [1] (setting [3]), the Emax came to 15%. In addition, the EC50 with PC12/HttN90Q103 cells [1] (setting [4]) worked out at 6 µM.
Turning to `CC(=O)c1ccc(S(=O)(=O)NC(=O)NC2CCCCC2)cc1` [Acetohexamide], the Emax in the test with PC12/HttN90Q103 cells [1] (setting [3]) was 18%. The 50% effective concentration (EC50) with PC12/HttN90Q103 cells [1] (setting [4]) came out at 3.9 µM.
As to `c1ccc2c(c1)[I+]c1ccccc1-2` [Diphenyleneiodonium], the Emax in the test on PC12/HttN90Q103 cells [1] (setting [3]) is 26%. The EC50 with PC12/HttN90Q103 cells [1] (setting [4]) is 0.1 µM.
As to `CC(=O)[C@H]1CC[C@H]2[C@@H]3CC=C4C[C@@H](O)CC[C@]4(C)[C@H]3CC[C@]12C` [Pregnenolone, 5-pregnen-3β-ol-20-one], the “Max Effect (% rescue)” value with PC12/HttN90Q103 cells [1] (setting [5]) worked out at 22%. The EC50 with PC12/HttN90Q103 cells [1] (setting [6]) worked out at 11.9 µM.
Consider `C=C1C[C@@H]2[C@H](CC[C@]3(C)C(=O)CC[C@@H]23)[C@@]2(C)C=CC(=O)C=C12` [Exemestane], for which the Emax in the test on PC12/HttN90Q103 cells [1] (setting [3]) was found to be 16%. Also, the EC50 in the test on PC12/HttN90Q103 cells [1] (setting [4]) was found to be 1.5 µM.
With `C[C@]12CC[C@H](O)CC1=CC[C@@H]1[C@@H]2CC[C@]2(C)C(=O)CC[C@@H]12` [Dehydroepiandrosterone], the Emax with PC12/HttN90Q103 cells [1] (setting [3]) amounted to 21%. Also, in the test with PC12/HttN90Q103 cells [1] (setting [4]), the EC50 turned out to be 11 µM.
On to `NC(=O)c1ncn([C@@H]2O[C@H](CO)[C@@H](O)[C@H]2O)c1N` [Aicar], for which the “Max Effect (% rescue)” value with PC12/HttN90Q103 cells [1] (setting [5]) amounted to 23%. The EC50 with PC12/HttN90Q103 cells [1] (setting [6]) is 14.1 µM.
For `C[C@H]1O[C@@H](O[C@H]2[C@@H](O)C[C@H](O[C@H]3[C@@H](O)C[C@H](O[C@H]4CC[C@@]5(C)[C@H](CC[C@@H]6[C@@H]5CC[C@]5(C)[C@@H](C7=CC(=O)OC7)CC[C@]65O)C4)O[C@@H]3C)O[C@@H]2C)C[C@H](O)[C@@H]1O` [Digitoxin], in the test on PC12/HttN90Q103 cells [1] (setting [3]), the Emax is 11%. For the same compound, in the test on PC12/HttN90Q103 cells [1] (setting [4]), the EC50 was 3.5 µM.
For the compound `COC(=O)CC[C@@H](C)[C@H]1CC[C@H]2[C@@H]3[C@H](OC(C)=O)C[C@@H]4C[C@H](OC(C)=O)CC[C@]4(C)[C@H]3CC[C@]12C` [Chenodeoxycholic acid diacetate methyl ester], in the test with PC12/HttN90Q103 cells [1] (setting [5]), the “Max Effect (% rescue)” value is 24%. For the same compound, in the test on PC12/HttN90Q103 cells [1] (setting [6]), the EC50 was 2.1 µM.
As for `C=CC[C@@H]1/C=C(\C)C[C@H](C)C[C@H](OC)[C@H]2O[C@@](O)(C(=O)C(=O)N3CCCC[C@H]3C(=O)O[C@H](/C(C)=C/[C@@H]3CC[C@@H](O)[C@H](OC)C3)[C@H](C)[C@@H](O)CC1=O)[C@H](C)C[C@@H]2OC` [Tacrolimus (FK-506), Tacrolimus], in the test with PC12/HttN90Q103 cells [1] (setting [3]), the Emax was determined as 36%. Moreover, the EC50 with PC12/HttN90Q103 cells [1] (setting [4]) was determined as 0.1 µM.
As for `O=C1NCCC1=Cc1ccc2c(c1)OCO2` [Heat shock protein inhibitor I (KNK-437), 3,4-methylenedioxy-benzylidine-γ-butyrolactam], the “Max Effect (% rescue)” value in the test on PC12/HttN90Q103 cells [1] (setting [5]) was 20%. Further, the concentration for a half-maximal effect (EC50) in the test with PC12/HttN90Q103 cells [1] (setting [6]) turned out to be 8.2 µM.
For `Cl.NCCc1ccc(S(=O)(=O)F)cc1` [Pefabloc SC], the “Max Effect (% rescue)” value in the test with PC12/HttN90Q103 cells [1] (setting [5]) stood at 34%. In the test on PC12/HttN90Q103 cells [1] (setting [6]), the EC50 is 6.8 µM.
As to `O=c1cc(-c2ccccc2)oc2cc(O)cc(O)c12` [Chrysin], the Emax in the test on PC12/HttN90Q103 cells [1] (setting [3]) turned out to be 14%. Further, the EC50 in the test on PC12/HttN90Q103 cells [1] (setting [4]) stood at 1.1 µM.
As for `Oc1ccc(Cl)cc1Cc1ccccc1` [Clorophene], the Emax with PC12/HttN90Q103 cells [1] (setting [3]) stood at 30%. For the same compound, the EC50 in the test on PC12/HttN90Q103 cells [1] (setting [4]) was found to be 0.9 µM.
Consider `N[C@@H]1C[C@H]1c1ccccc1` (racemic) [Tranylcypromine], for which, in the test with PC12/HttN90Q103 cells [2] (250 nM tebufenozide induction), the “Max Effect (% rescue)” value came to 16%. Further, the EC50 in the test on PC12/HttN90Q103 cells [2] came out at 2.2 µM.
Take `C=C1/C(=C\C=C2/CCC[C@]3(C)[C@@H]([C@H](C)CCCC(C)(C)O)CC[C@@H]23)C[C@@H](O)C[C@@H]1O` [Calcitriol]: the EC50 in the test with PC12/HttN90Q103 cells [1] (Rattus norvegicus, PC-12) was 0.01 µM. Besides, in the test on PC12/HttN90Q103 cells [1] (Rattus norvegicus, PC-12, read-out: Max Effect (% rescue)), the Emax came out at 33%.
Take `CC1CNCCN1S(=O)(=O)c1cccc2cnccc12` (stereo not drawn) [1-(5-isoquinolinesulfonyl)-2-methylpiperazine]: in the test with PC12/HttN90Q103 cells [2] (Rattus norvegicus, PC-12, 250 nM tebufenozide induction, read-out: Max Effect (% rescue)), the Emax is 28%. Also, the 50% effective concentration (EC50) in the test with PC12/HttN90Q103 cells [2] (Rattus norvegicus, PC-12) is 15.5 µM.

Source of the values: patent publication US20080044390A1, “Methods and compositions for the treatment of neurodegenerative disorders” (priority 2006, published 2008).
